Read-outs that look alike come from different tables or passages of the source.
Key:
[1] = in vivo; conditions: mouse, in vivo
[2] = in vivo; conditions: rat, in vivo
[3] = cited from earlier work
[4] = cited from earlier work; remark: listed apart in the source
[5] = system: mouse; test: in vivo
[6] = system: rat; test: in vivo
[7] = po, oral administration, LITCHFIELD and WILCOXON method, read-out: acute toxicity LD50

Work on `O=C(O)CCCCC1CCSS1` (racemic) [alpha-lipoic acid (racemate), 1,2-dithia-cyclopentane-3-valeric acid] yielded an LD50 ([1]; po, female, read-out: LD50) of 460 mg/kg, an LD50 ([1]; po, male, read-out: LD50) of 502 mg/kg and an LD50 ([2]; po, female) of 1210 mg/kg. The LD50 ([2]; po, male) was 1190 mg/kg.

For `O=C(O)CCCC[C@@H]1CCSS1` [R-alpha-lipoic acid], the LD50 [1, 7] is given as over 1000 mg/kg, the “predominant effect of the enantiomer (anti-inflammatory)” value ([3]; in vivo) is given as “predominantly anti-inflammatory effect” and the “anti-inflammatory effect relative to the racemate” value ([3]; x times stronger than the racemate) is given as 10 times.

In the case of `O=C(O)CCCC[C@H]1CCSS1` [S-alpha-lipoic acid], the “predominant effect of the enantiomer (antinociceptive)” value ([4]; in vivo) is given as “predominantly antinociceptive effect”, the “antinociceptive (analgesic) effect relative to the racemate” value ([4]; up to x times stronger than the racemate) is given as “up to 6 times” and the LD50 [1, 7] is given as over 1000 mg/kg.

Work on `O=C1O[C@H]([C@@H](O)CO)C(O)=C1O` [Vitamin C, ascorbic acid] yielded an LD50 ([1]; iv, read-out: LD50) of 1060 mg/kg, an LD50 ([1]; po, read-out: LD50) of 8020 mg/kg and an LD50 ([2]; iv) of 1000 mg/kg. For the same molecule, the LD50 ([2]; po) was over 5000 mg/kg.

Molecule Vitamin B6 has an LD50 ([5]; i.v.) of 1020 mg/kg, an LD50 ([5]; p.o.) of 8400 mg/kg and an LD50 ([6]; i.v.) of 1450 mg/kg. The LD50 ([6]; p.o.) was 5500 to 15900 mg/kg.
